# PubChem BioAssay (NCI)
#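 All cell lines were grown in 96-well plates and treated with compound for 48 hours. Abbreviation: GI50, concentration required for 50% inhibition of growth. Definition used: TGI = concentration required for complete inhibition of growth.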
# Experiments:
# Assay in all cases: NCI tumour cell line growth inhibition, 48 h
# SNB-75 CNS = test system: SNB-75 CNS
# OVCAR-8 ovarian = test system: OVCAR-8 ovarian
# HT29 colon = test system: HT29 colon
# KM12 colon = test system: KM12 colon
# DLD-1 colon = test system: DLD-1 colon
# UACC-257 melanoma = test system: UACC-257 melanoma
# OVCAR-3 ovarian = test system: OVCAR-3 ovarian
# SK-MEL-5 melanoma = test system: SK-MEL-5 melanoma
# SN12C renal = test system: SN12C renal
# CAKI-1 renal = test system: CAKI-1 renal
# NCI-H23 lung = test system: NCI-H23 lung
# IGROV1 ovarian = test system: IGROV1 ovarian
# 786-0 renal = test system: 786-0 renal
# HCT-116 colon = test system: HCT-116 colon
# M14 melanoma = test system: M14 melanoma
# HOP-18 NSCLC = test system: HOP-18 NSCLC
# ACHN renal = test system: ACHN renal
# A549 NSCLC = test system: A549 NSCLC
# SF-295 CNS = test system: SF-295 CNS
# SK-MEL-2 melanoma = test system: SK-MEL-2 melanoma
# HL-60(TB) leukemia = test system: HL-60(TB) leukemia
# UACC-62 melanoma = test system: UACC-62 melanoma
# KM20L2 colon = test system: KM20L2 colon
# HCC-2998 colon = test system: HCC-2998 colon
# HOP-62 NSCLC = test system: HOP-62 NSCLC
# MALME-3M melanoma = test system: MALME-3M melanoma
# M19-MEL melanoma = test system: M19-MEL melanoma
# RXF 393 renal = test system: RXF 393 renal
# EKVX NSCLC = test system: EKVX NSCLC
# LXFL 529 NSCLC = test system: LXFL 529 NSCLC
# COLO 205 colon = test system: COLO 205 colon
# UO-31 renal = test system: UO-31 renal
# HOP-92 NSCLC = test system: HOP-92 NSCLC
# DMS 273 small cell lung = test system: DMS 273 small cell lung
# OVCAR-5 ovarian = test system: OVCAR-5 ovarian
# CCRF-CEM leukemia = test system: CCRF-CEM leukemia
# SF-268 CNS = test system: SF-268 CNS
# HCT-15 colon = test system: HCT-15 colon
# MOLT-4 leukemia = test system: MOLT-4 leukemia
# SF-539 CNS = test system: SF-539 CNS
# LOX IMVI melanoma = test system: LOX IMVI melanoma
# U251 CNS = test system: U251 CNS
# SW-620 colon = test system: SW-620 colon
# OVCAR-4 ovarian = test system: OVCAR-4 ovarian
# NCI-H460 lung = test system: NCI-H460 lung
# SK-MEL-28 melanoma = test system: SK-MEL-28 melanoma
# SNB-19 CNS = test system: SNB-19 CNS
# SNB-78 CNS = test system: SNB-78 CNS
# NCI-H226 lung = test system: NCI-H226 lung
# SK-OV-3 ovarian = test system: SK-OV-3 ovarian
# NCI-H522 lung = test system: NCI-H522 lung
# K-562 leukemia = test system: K-562 leukemia
structure (smiles),measurement,setting,value
CC(C)(C)C([O-])=C1C(=O)c2ccccc2C1=O.CC(C)(C)C([O-])=C1C(=O)c2ccccc2C1=O.CC[O-].CC[O-].[Ti+4],GI50,SNB-75 CNS,42.3 µM
same,TGI,SNB-75 CNS,> 100 µM
same,GI50,OVCAR-8 ovarian,29.3 µM
same,TGI,OVCAR-8 ovarian,90.1 µM
same,GI50,HT29 colon,32.9 µM
same,TGI,HT29 colon,> 100 µM
same,GI50,KM12 colon,37.6 µM
same,TGI,KM12 colon,> 100 µM
same,GI50,DLD-1 colon,46.9 µM
same,TGI,DLD-1 colon,> 100 µM
same,GI50,UACC-257 melanoma,30.4 µM
same,TGI,UACC-257 melanoma,96.9 µM
same,GI50,OVCAR-3 ovarian,27.9 µM
same,TGI,OVCAR-3 ovarian,91.4 µM
same,GI50,SK-MEL-5 melanoma,42.2 µM
same,TGI,SK-MEL-5 melanoma,95.6 µM
same,GI50,SN12C renal,37.7 µM
same,TGI,SN12C renal,> 100 µM
same,GI50,CAKI-1 renal,28 µM
same,TGI,CAKI-1 renal,81.7 µM
same,GI50,NCI-H23 lung,31.8 µM
same,TGI,NCI-H23 lung,> 100 µM
same,GI50,IGROV1 ovarian,70.4 µM
same,TGI,IGROV1 ovarian,> 100 µM
same,GI50,786-0 renal,47.2 µM
same,TGI,786-0 renal,> 100 µM
same,GI50,HCT-116 colon,37.7 µM
same,TGI,HCT-116 colon,> 100 µM
same,GI50,M14 melanoma,57.4 µM
same,TGI,M14 melanoma,> 100 µM
same,GI50,HOP-18 NSCLC,18.2 µM
same,TGI,HOP-18 NSCLC,83.3 µM
same,GI50,ACHN renal,35.2 µM
same,TGI,ACHN renal,> 100 µM
same,GI50,A549 NSCLC,36.2 µM
same,TGI,A549 NSCLC,> 100 µM
same,GI50,SF-295 CNS,28.3 µM
same,TGI,SF-295 CNS,> 100 µM
same,GI50,SK-MEL-2 melanoma,25.8 µM
same,TGI,SK-MEL-2 melanoma,85.2 µM
same,GI50,HL-60(TB) leukemia,27.1 µM
same,TGI,HL-60(TB) leukemia,67 µM
same,GI50,UACC-62 melanoma,11.9 µM
same,TGI,UACC-62 melanoma,28.8 µM
same,GI50,KM20L2 colon,29.2 µM
same,TGI,KM20L2 colon,> 100 µM
same,GI50,HCC-2998 colon,40.3 µM
same,TGI,HCC-2998 colon,> 100 µM
same,GI50,HOP-62 NSCLC,37.7 µM
same,TGI,HOP-62 NSCLC,> 100 µM
same,GI50,MALME-3M melanoma,17.3 µM
same,TGI,MALME-3M melanoma,38.5 µM
same,GI50,M19-MEL melanoma,31.5 µM
same,TGI,M19-MEL melanoma,> 100 µM
same,GI50,RXF 393 renal,10.8 µM
same,TGI,RXF 393 renal,90.3 µM
same,GI50,EKVX NSCLC,21.7 µM
same,TGI,EKVX NSCLC,63.9 µM
same,GI50,LXFL 529 NSCLC,39.9 µM
same,TGI,LXFL 529 NSCLC,> 100 µM
same,GI50,COLO 205 colon,22.7 µM
same,TGI,COLO 205 colon,44.7 µM
same,GI50,UO-31 renal,19.1 µM
same,TGI,UO-31 renal,44.5 µM
same,GI50,HOP-92 NSCLC,26.9 µM
same,TGI,HOP-92 NSCLC,> 100 µM
same,GI50,DMS 273 small cell lung,31.2 µM
same,TGI,DMS 273 small cell lung,> 100 µM
same,GI50,OVCAR-5 ovarian,34.8 µM
same,TGI,OVCAR-5 ovarian,> 100 µM
same,GI50,CCRF-CEM leukemia,38.8 µM
same,TGI,CCRF-CEM leukemia,> 100 µM
same,GI50,SF-268 CNS,70.6 µM
same,TGI,SF-268 CNS,> 100 µM
same,GI50,HCT-15 colon,29.5 µM
same,TGI,HCT-15 colon,> 100 µM
same,GI50,MOLT-4 leukemia,22.4 µM
same,TGI,MOLT-4 leukemia,61.9 µM
same,GI50,SF-539 CNS,50.8 µM
same,TGI,SF-539 CNS,> 100 µM
same,GI50,LOX IMVI melanoma,40.4 µM
same,TGI,LOX IMVI melanoma,> 100 µM
same,GI50,U251 CNS,41.6 µM
same,TGI,U251 CNS,> 100 µM
same,GI50,SW-620 colon,25.5 µM
same,TGI,SW-620 colon,> 100 µM
same,GI50,OVCAR-4 ovarian,58.7 µM
same,TGI,OVCAR-4 ovarian,> 100 µM
same,GI50,NCI-H460 lung,32.1 µM
same,TGI,NCI-H460 lung,> 100 µM
same,GI50,SK-MEL-28 melanoma,> 100 µM
same,TGI,SK-MEL-28 melanoma,> 100 µM
same,GI50,SNB-19 CNS,40.8 µM
same,TGI,SNB-19 CNS,> 100 µM
same,GI50,SNB-78 CNS,28.4 µM
same,TGI,SNB-78 CNS,93.8 µM
same,GI50,NCI-H226 lung,56.7 µM
same,TGI,NCI-H226 lung,> 100 µM
same,GI50,SK-OV-3 ovarian,39.9 µM
same,TGI,SK-OV-3 ovarian,> 100 µM
same,GI50,NCI-H522 lung,21.7 µM
same,TGI,NCI-H522 lung,54.2 µM
same,GI50,K-562 leukemia,44.9 µM
same,TGI,K-562 leukemia,> 100 µM
